The values that follow come from ChEMBL document CHEMBL3045427, “Synthesis, anticonvulsant and neurotoxic activity of some new 2,5-disubstituted-1,3,4-oxadiazoles” (Med Chem Res, 2011).

Calls of active or inactive are those of the source. The calls are words filed in the database; no cut-off is given here.

The subject of data set [1] is Mus musculus. Put plainly: Neurotoxicity in Mus musculus albino (mouse) assessed as minimal motor impairment at 300 mg/kg, ip after 4 hr by rotarod test. It is filed as toxicity, organism-based. Also on record: dose 300 mg/kg, route intraperitoneal. The settings on record: in vivo.
The test system of data set [2] is Mus musculus. Put plainly: Neurotoxicity in Mus musculus albino (mouse) assessed as minimal motor impairment at 300 mg/kg, ip after 0.5 hr by rotarod test. It is filed as toxicity, organism-based. Also on record: dose 300 mg/kg, route intraperitoneal. The settings on record: in vivo.
Data set [3] relates to Mus musculus. Put plainly: Anticonvulsant activity in Mus musculus albino (mouse) assessed as protection against subcutaneous metrazole-induced seizure at 300 mg/kg, ip after 0.5 hr. The arrangement: dose 300 mg/kg. It is filed as functional, organism-based.
Data set [4] concerns Mus musculus. The experiment in a line: Anticonvulsant activity in Mus musculus albino (mouse) assessed as protection against maximal electroshock-induced seizure at 300 mg/kg, ip after 4 hr. It is filed as functional, organism-based. The arrangement: dose 300 mg/kg.
Data set [5] has as its system Mus musculus. The experiment in a line: Anticonvulsant activity in Mus musculus albino (mouse) assessed as protection against subcutaneous metrazole-induced seizure at 300 mg/kg, ip after 4 hr. In kind it is functional, organism-based. Also on record: dose 300 mg/kg.
The subject of data set [6] is Mus musculus. Put plainly: Anticonvulsant activity in Mus musculus albino (mouse) assessed as protection against maximal electroshock-induced seizure at 300 mg/kg, ip after 0.5 hr. In kind it is functional, organism-based. The arrangement: dose 300 mg/kg.
The subject of data set [7] is Mus musculus. The experiment in a line: Anticonvulsant activity in ip dosed Mus musculus albino (mouse) assessed as protection against maximal electroshock-induced seizure after 4 hr. In kind it is functional. The settings on record: read-out: MED.
In data set [8] the test system is Mus musculus. Put plainly: Anticonvulsant activity in ip dosed Mus musculus albino (mouse) assessed as protection against subcutaneous metrazole-induced seizure after 4 hr. It is filed as functional. The settings on record: read-out: MED.
Data set [9] deals with Mus musculus. The experiment in a line: Neurotoxicity in ip dosed Mus musculus albino (mouse) assessed as minimal motor impairment after 4 hr by rotarod test. It is filed as toxicity, organism-based. The settings on record: in vivo.
Data set [10] relates to Mus musculus. Put plainly: Anticonvulsant activity in ip dosed Mus musculus albino (mouse) assessed as protection against subcutaneous metrazole-induced seizure after 0.5 hr. In kind it is functional. The settings on record: read-out: MED.
The test system of data set [11] is Mus musculus. The experiment in a line: Neurotoxicity in ip dosed Mus musculus albino (mouse) assessed as minimal motor impairment after 0.5 hr by rotarod test. It is filed as toxicity, organism-based. The settings on record: in vivo.
Data set [12] relates to Mus musculus. The experiment in a line: Anticonvulsant activity in ip dosed Mus musculus albino (mouse) assessed as protection against maximal electroshock-induced seizure after 0.5 hr. It is filed as functional. The settings on record: read-out: MED.

Turning to `CC(C)=CCC/C(C)=C\C=N/c1nnc(-c2ccc(C)cc2)o1`, the Activity result in [1] and in [2] was “Non-toxic” throughout. For the same molecule, the result in data set [3], in [4], in data set [5] and in [6] was inactive.

As to `COc1ccc(-c2nnc(NC(=O)N/N=C\C=C(\C)CCC=C(C)C)o2)cc1`, the Activity entry in [1] and in [2] was “Non-toxic” throughout. Besides, the result in data set [3], in data set [5] and in data set [6] was inactive. In [7], the minimal effective dose amounted to 300 mg/kg.

On to `COc1ccc(-c2nnc(/N=C\C=C(\C)CCC=C(C)C)o2)cc1`, for which the Activity entry in data set [1] and in [2] was “Non-toxic” in each case. The result in [3], in data set [4], in [5] and in [6] was inactive.

For the molecule `CC(C)=CCC/C(C)=C\C=N/c1nnc(-c2ccc(Cl)cc2)o1`, the Activity entry in [1] and in data set [2] was “Non-toxic” each time. The minimal effective dose in data set [8] and in [7] was 300 mg/kg each time. Further, the outcome in data set [3] and in [6] was inactive.

As for `CC(C)=CCC/C(C)=C\C=N/NC(=O)Nc1nnc(-c2ccccc2)o1`, the Activity result in data set [1] and in data set [2] was “Non-toxic” throughout. For the same molecule, the outcome in [3], in [5] and in data set [6] was inactive. Also, the minimal effective dose in [7] worked out at 300 mg/kg.

Take `CC(C)=CCC/C(C)=C\C=N/c1nnc(-c2ccccc2)o1`: the MTC in [9] and in [11] was 300 mg/kg in each case. Further, the minimal effective dose in [10] was determined as 300 mg/kg; in [8], 300 mg/kg; in [7], 100 mg/kg; in [12] it was 30 mg/kg.

Consider `CC(C)=CCC/C(C)=C\C=N/NC(=O)Nc1nnc(-c2ccc(C)cc2)o1`, for which the Activity entry in data set [1] and in [2] was “Non-toxic” each time. The outcome in data set [3], in data set [5] and in data set [6] was inactive. Further, the minimal effective dose in [7] came out at 300 mg/kg.

On to `CC(C)=CCC/C(C)=C\C=N/NC(=O)Nc1nnc(-c2ccc(Cl)cc2)o1`, for which the Activity entry in data set [1] and in data set [2] was “Non-toxic” in each case. Further, the outcome in [3], in data set [4] and in data set [5] was inactive. Further, the minimal effective dose in data set [12] came out at 30 mg/kg.

Consider `O=C1NC(=O)C(c2ccccc2)(c2ccccc2)N1` [PHENYTOIN], for which the MTC in data set [9] and in data set [11] was 100 mg/kg throughout. Besides, the result in data set [3] and in [5] was inactive. Further, the minimal effective dose in [7] and in data set [12] was 30 mg/kg in each case.

For the molecule `NC(=O)N1c2ccccc2C=Cc2ccccc21` [CARBAMAZEPINE], the MTC in [9] was determined as 300 mg/kg; in data set [11], 100 mg/kg. The minimal effective dose in [10] amounted to 100 mg/kg; in data set [8], 300 mg/kg; in data set [7], 100 mg/kg; in [12] it was 30 mg/kg.
